# “And” between values parts separate entries of the source, which are not always exact repeats. Equal values may be shown once. Read-outs that look alike come from different tables or passages of the source. No end group written: not given here.
# Experiments:
# [1] = molecular target: HLA-B*1801 (Homo sapiens, UniProt P01889, A329T/A93T/A95T/C349S/D201E/D54G/D98Y/E176V/E187T/E204Q/E69T/K202T/Q94N/R155S/R180L/S121R/V306I/Y140S/Y195H/Y33H/Y91S); experiment: biochemical; assay type: binding
# [2] = molecular target: HLA-B*4002 (Homo sapiens, UniProt P01889, A65T/A93T/A95T/D138N/D201E/D98Y/E176V/E204Q/E69K/K202T/N87E/Q56L/Q94N/R180L/S48T/Y33H/Y91S); experiment: biochemical; assay type: binding
# [3] = molecular target: HLA-B*4402 (Homo sapiens, UniProt P01889, A223V/A65T/A93T/A95T/D201E/D98Y/E176V/E187L/E204Q/E69K/G107R/H137Y/K202T/L105A/L119I/N104T/N87E/Q56L/Q94N/R106L/R155S/R180D/S101N/S121R/S35A/S48T/T118I/V36M/W191S/Y140D/Y91S); experiment: biochemical; assay type: binding
# [4] = molecular target: HLA-B*4403 (Homo sapiens, UniProt P01889, A223V/A65T/A93T/A95T/D201E/D98Y/E176V/E187L/E204Q/E69K/G107R/H137Y/K202T/L105A/L119I/N104T/N87E/Q56L/Q94N/R106L/R155S/R180L/S101N/S121R/S35A/S48T/T118I/V36M/W191S/Y140D/Y91S); experiment: biochemical; assay type: binding
# [5] = molecular target: HLA-B*4501 (Homo sapiens, UniProt P01889, A329T/A65T/A93T/A95T/C349S/D138N/D201E/D98Y/E176V/E187L/E204Q/E69K/H137Y/K202T/L119W/N87E/Q56L/Q94N/R155S/R180D/S121R/S35A/S48T/V127L/V306I/V36M/W191S/Y140L/Y33H/Y91S); experiment: biochemical; assay type: binding
# [6] = molecular target: HLA-A*0101 (Homo sapiens, UniProt P04439, A114D/A174V/A182V/D101N/D185E/E176A/E190D/L180R/Q94H/R68K/S129P/T187R/V100A/V91M/W191G); experiment: biochemical; assay type: binding
# [7] = molecular target: HLA-A*3002 (Homo sapiens, UniProt P04439, D101N/D140H/D185E/E176R/F33S/G80R/H175R/K168Q/Q94H/R138E/R41S/V100E); experiment: biochemical; assay type: binding
# [8] = molecular target: HLA-A*2902 (Homo sapiens, UniProt P04439, A270S/D101N/D185E/E176V/E277Q/E87Q/F33T/G231S/H175R/I121M/I218V/I322F/K168Q/L300P/L318F/M331R/P208A/P217A/Q86L/T323A/T345S/V100A/V358M); experiment: MHC molecular binding / Capture assay, IC50: A*2902
# [9] = molecular target: HLA-B*4001 (Homo sapiens, UniProt P01889, A65T/A93T/A95T/D138N/D98Y/E176V/E69K/N87E/Q56L/Q94N/R180L/S121R/S35A/S48T/T167S/V36M/W171L/Y33H/Y91S); experiment: biochemical; assay type: binding
# [10] = Binding affinity to A*0101 (expressed as an IC50)
# [11] = Binding affinity to A*3002 (expressed as an IC50)
# [12] = Binding affinity to A*2902 (expressed as an IC50)
# [13] = read-out: Binding affinity to A*0101 (expressed as an IC50)
sequence,measurement,setting,value
GELSYLNV,IC50,[1]; B*1801,> 24800 nM
same,IC50,[2]; B*4002,100 nM
same,IC50,[3]; B*4402,19000 nM
same,IC50,[4]; B*4403,23700 nM
same,IC50,[5]; B*4501,784 nM
HTDTPTLHEY,IC50,[6]; [10],20 nM and 30 nM
same,IC50,[7],54 nM
ISDYRHYNY,IC50,[6]; [10],16 nM and 28 nM
same,IC50,[8],45 nM
ISEYRHYQY,IC50,[6]; [10],40 nM
ITEYRHYQY,IC50,[6]; [10],90 nM
ITKILYQSNPY,IC50,[6]; [10],> 10100 nM
same,IC50,[8],64900 nM
KEKGGLDGLI,IC50,[1]; B*1801,> 22800 nM
same,IC50,[2]; B*4002,233 nM
same,IC50,[3]; B*4402,14700 nM
same,IC50,[4]; B*4403,3630 nM
same,IC50,[5]; B*4501,9990 nM
KTGPGPGHLY,IC50,[6]; [10],29 nM
same,IC50,[7]; [11],1.3 nM
KTYGPGPGLY,IC50,[6]; [10],5.7 nM
same,IC50,[7]; [11],0.96 nM
LDKGIKPY,IC50,[1]; B*1801,> 100000 nM
same,IC50,[9]; B*4001,17900 nM
same,IC50,[2]; B*4002,468 nM
same,IC50,[3]; B*4402,> 43200 nM
same,IC50,[4]; B*4403,19300 nM
same,IC50,[5]; B*4501,23600 nM
LDPYARVAI,IC50,[1],> 24400 nM
same,IC50,[9],> 88900 nM
same,IC50,[2],372 nM
same,IC50,[3],> 41600 nM
same,IC50,[4],> 39800 nM
same,IC50,[5],> 49000 nM
LEASISGKY,IC50,[6]; [10],57800 nM
same,IC50,[7],87 nM
LIENELMNY,IC50,[6]; [10],412 nM
same,IC50,[8]; [12],3940 nM
LSGPGPGAIFY,IC50,[6]; [13],25 nM
LSLDGPGPGY,IC50,[6]; [10],266 nM
same,IC50,[8]; [12],274 nM
LSLGPGPGFY,IC50,[6]; [10],21 nM
same,IC50,[7]; [11],8.2 nM
MDIDPYKEF,IC50,[1]; B*1801,169000 nM
same,IC50,[9]; B*4001,3700 nM
same,IC50,[2]; B*4002,382 nM
same,IC50,[3]; B*4402,21700 nM
same,IC50,[4]; B*4403,1950 nM
same,IC50,[5]; B*4501,2610 nM
NLALLYGEY,IC50,[6]; [10],275 nM
same,IC50,[7]; [11],102 nM
NVDQQNIDMY,IC50,[6]; [13],47 nM
PENLWVTVY,IC50,[1],190 nM
same,IC50,[9],> 72700 nM
same,IC50,[2],> 155000 nM
same,IC50,[3],> 167000 nM
same,IC50,[4],> 425000 nM
same,IC50,[5],> 49000 nM
QEILDLWV,IC50,[1]; B*1801,> 22800 nM
same,IC50,[2]; B*4002,1720 nM
same,IC50,[3]; B*4402,> 81400 nM
same,IC50,[4]; B*4403,5920 nM
same,IC50,[5]; B*4501,5500 nM
RERPDNYV,IC50,[1]; read-out: B*1801,> 73800 nM
same,IC50,[9]; read-out: B*4001,71600 nM
same,IC50,[2]; read-out: B*4002,62 nM
same,IC50,[3]; read-out: B*4402,> 67600 nM
same,IC50,[4]; read-out: B*4403,> 34500 nM
same,IC50,[5]; read-out: B*4501,34600 nM
RTETPTLQDY,IC50,[6]; [10],11 nM and 40 nM
same,IC50,[8],1990 nM
SEAPKYAIL,IC50,[1]; B*1801,2260 nM
same,IC50,[2]; B*4002,7.8 nM
same,IC50,[3]; B*4402,762 nM
same,IC50,[4]; B*4403,2260 nM
same,IC50,[5]; B*4501,479 nM
SYQHFRIKLLL,IC50,[6]; [13],> 83300 nM
TLEGPGPGGLY,IC50,[6]; [10],11 nM
same,IC50,[7]; [11],40 nM
WVYHTQGYY,IC50,[6]; [10],703 nM
same,IC50,[7],5.6 nM
YENLWVTVY,IC50,[1],29 nM
same,IC50,[2],324 nM
same,IC50,[3],640 nM
same,IC50,[4],369 nM
same,IC50,[5],10700 nM
YSDISEYRHY,IC50,[6]; [10],3.8 nM
same,IC50,[8],1350 nM
YSDVSEFRWY,IC50,[6]; [10],3.9 nM
same,IC50,[8],1840 nM

# — patent US20060079453A1, “Hla binding peptides and their uses” (priority 2002, published 2006)
